Laboratory results from ChEMBL document CHEMBL4184210, “Optimization of novel monobactams with activity against carbapenem-resistant Enterobacteriaceae - Identification of LYS228” (Bioorg Med Chem Lett, 2018).
pIC50: −log10 of the molar value. In brackets after ≈: the same amount, converted by molar mass.

Tests used:
Escherichia coli [1] = assay: microbe, parasite or virus in culture
Description: Antimicrobial activity against Escherichia coli expressing beta-lactamase MIR-1 by CLSI broth microdilution method

[2] = target: T1, GABA A receptor alpha-2/beta-2/gamma-2 (Homo sapiens, UniProt P18507+P47869+P47870); assay: Inhibition of recombinant human GABA A alpha2beta2gamma2 receptor expressed in CHO-K1 cells incubated at room temperature for 15 mins before the GABA addition fluorescence spectrometry; assay type: cell-based
T1 sequence (P47870 whole entry): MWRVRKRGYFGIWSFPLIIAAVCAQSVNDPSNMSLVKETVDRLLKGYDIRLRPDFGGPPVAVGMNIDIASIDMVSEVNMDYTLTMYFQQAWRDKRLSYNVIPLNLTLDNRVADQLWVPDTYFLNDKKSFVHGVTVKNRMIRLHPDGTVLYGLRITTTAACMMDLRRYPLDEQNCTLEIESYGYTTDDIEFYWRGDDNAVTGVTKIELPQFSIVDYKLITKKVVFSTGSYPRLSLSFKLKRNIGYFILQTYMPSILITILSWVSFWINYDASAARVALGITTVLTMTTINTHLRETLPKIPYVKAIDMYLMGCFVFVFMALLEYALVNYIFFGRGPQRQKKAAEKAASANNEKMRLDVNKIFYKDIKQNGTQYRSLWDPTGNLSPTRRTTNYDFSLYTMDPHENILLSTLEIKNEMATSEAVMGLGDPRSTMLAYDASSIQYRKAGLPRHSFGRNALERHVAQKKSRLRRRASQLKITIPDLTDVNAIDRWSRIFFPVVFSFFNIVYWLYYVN
T1 sequence (P18507 whole entry): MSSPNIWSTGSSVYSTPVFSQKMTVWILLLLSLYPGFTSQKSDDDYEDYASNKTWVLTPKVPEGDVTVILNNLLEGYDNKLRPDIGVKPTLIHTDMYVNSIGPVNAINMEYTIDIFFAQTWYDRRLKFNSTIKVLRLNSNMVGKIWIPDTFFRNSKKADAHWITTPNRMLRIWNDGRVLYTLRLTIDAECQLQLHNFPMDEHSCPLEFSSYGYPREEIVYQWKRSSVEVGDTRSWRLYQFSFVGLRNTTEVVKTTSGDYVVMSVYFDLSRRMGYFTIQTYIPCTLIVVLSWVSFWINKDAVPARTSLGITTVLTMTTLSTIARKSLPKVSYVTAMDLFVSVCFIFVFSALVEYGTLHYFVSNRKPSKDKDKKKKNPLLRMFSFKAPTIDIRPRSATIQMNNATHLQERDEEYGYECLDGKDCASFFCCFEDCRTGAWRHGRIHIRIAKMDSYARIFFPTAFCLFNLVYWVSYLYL
T1 sequence (P47869 whole entry): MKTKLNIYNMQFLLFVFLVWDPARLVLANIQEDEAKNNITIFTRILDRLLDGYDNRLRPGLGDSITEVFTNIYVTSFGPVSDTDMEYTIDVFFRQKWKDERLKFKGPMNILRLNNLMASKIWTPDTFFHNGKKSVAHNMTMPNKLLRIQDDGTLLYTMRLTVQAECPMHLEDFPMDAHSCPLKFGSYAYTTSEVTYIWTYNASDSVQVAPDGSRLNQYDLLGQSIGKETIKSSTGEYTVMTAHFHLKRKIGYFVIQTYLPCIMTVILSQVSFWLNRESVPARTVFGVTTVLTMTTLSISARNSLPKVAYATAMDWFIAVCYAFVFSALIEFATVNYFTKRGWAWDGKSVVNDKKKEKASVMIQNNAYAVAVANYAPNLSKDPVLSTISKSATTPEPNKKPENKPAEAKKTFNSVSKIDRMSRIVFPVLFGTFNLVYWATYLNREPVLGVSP

Pseudomonas aeruginosa [3] = assay: Antimicrobial activity against Pseudomonas aeruginosa expressing delta-mexB/delta-mexXY/delta-mexCD and delta-ampC mutant by CLSI broth microdilution method; assay type: functional
Escherichia coli [4] = assay: microbe, parasite or virus in culture; remark: listed apart in the source
Description: Antimicrobial activity against Escherichia coli expressing beta-lactamase CMY-2 by CLSI broth microdilution method

Escherichia coli [5] = assay: microbe, parasite or virus in culture; remark: listed apart in the source
Description: Antimicrobial activity against Escherichia coli expressing beta-lactamase NMC-A by CLSI broth microdilution method

Enterobacteriaceae = assay: Antimicrobial activity against ESBL, KPC and MBL producing Enterobacteriaceae by CLSI broth microdilution method; assay type: functional
Escherichia coli [6] = assay: Antimicrobial activity against Escherichia coli expressing beta-lactamase TEM-1 by CLSI broth microdilution method; assay type: functional
Pseudomonas aeruginosa [7] = assay: Antimicrobial activity against Pseudomonas aeruginosa expressing delta-mexB/mexXY/delta-ampDh2/ delta-ampD by CLSI broth microdilution method; assay type: functional
Escherichia coli [8] = assay: microbe, parasite or virus in culture; remark: listed apart in the source
Description: Antimicrobial activity against Escherichia coli expressing beta-lactamase PER-1 by CLSI broth microdilution method

Escherichia coli [9] = assay: microbe, parasite or virus in culture; remark: listed apart in the source
Description: Antimicrobial activity against Escherichia coli expressing beta-lactamase KPC-4 by CLSI broth microdilution method

Escherichia coli [10] = assay: microbe, parasite or virus in culture; remark: listed apart in the source
Description: Antimicrobial activity against Escherichia coli expressing beta-lactamase KPC-8 by CLSI broth microdilution method

Escherichia coli [11] = assay: microbe, parasite or virus in culture; remark: listed apart in the source
Description: Antimicrobial activity against wild type Escherichia coli by CLSI broth microdilution method

Escherichia coli [12] = assay: microbe, parasite or virus in culture; remark: listed apart in the source
Description: Antimicrobial activity against Escherichia coli expressing beta-lactamase Oxa-23 by CLSI broth microdilution method

Escherichia coli [13] = assay: microbe, parasite or virus in culture; remark: listed apart in the source
Description: Antimicrobial activity against Escherichia coli expressing beta-lactamase TEM-121 by CLSI broth microdilution method

Escherichia coli [14] = assay: microbe, parasite or virus in culture; remark: listed apart in the source
Description: Antimicrobial activity against Escherichia coli expressing beta-lactamase Oxa-146 by CLSI broth microdilution method

Escherichia coli [15] = assay: microbe, parasite or virus in culture; remark: listed apart in the source
Description: Antimicrobial activity against Escherichia coli expressing beta-lactamase Oxa-18 by CLSI broth microdilution method

Escherichia coli [16] = assay: microbe, parasite or virus in culture; remark: listed apart in the source
Description: Antimicrobial activity against Escherichia coli expressing beta-lactamase Oxa-51 by CLSI broth microdilution method

Escherichia coli [17] = assay: microbe, parasite or virus in culture; remark: listed apart in the source
Description: Antimicrobial activity against Escherichia coli expressing beta-lactamase PER-2 by CLSI broth microdilution method

Escherichia coli [18] = assay: microbe, parasite or virus in culture; remark: listed apart in the source
Description: Antimicrobial activity against Escherichia coli expressing beta-lactamase GIM-1 by CLSI broth microdilution method

Escherichia coli [19] = assay: microbe, parasite or virus in culture; remark: listed apart in the source
Description: Antimicrobial activity against Escherichia coli expressing beta-lactamase TEM-16 by CLSI broth microdilution method

Escherichia coli [20] = assay: microbe, parasite or virus in culture; remark: listed apart in the source
Description: Antimicrobial activity against Escherichia coli expressing beta-lactamase GES-1 by CLSI broth microdilution method

Escherichia coli [21] = assay: microbe, parasite or virus in culture; remark: listed apart in the source
Description: Antimicrobial activity against Escherichia coli expressing beta-lactamase VEB-4 by CLSI broth microdilution method

Escherichia coli [22] = assay: microbe, parasite or virus in culture; remark: listed apart in the source
Description: Antimicrobial activity against Escherichia coli expressing beta-lactamase DHA by CLSI broth microdilution method

Escherichia coli [23] = assay: microbe, parasite or virus in culture; remark: listed apart in the source
Description: Antimicrobial activity against Escherichia coli expressing beta-lactamase CTXM-3 by CLSI broth microdilution method

Pseudomonas aeruginosa [24] = assay: Antimicrobial activity against Pseudomonas aeruginosa ATCC 27853 by CLSI broth microdilution method; assay type: functional
Escherichia coli [25] = assay: microbe, parasite or virus in culture; remark: listed apart in the source
Description: Antimicrobial activity against Escherichia coli expressing beta-lactamase SHV-12 by CLSI broth microdilution method

Escherichia coli [26] = assay: microbe, parasite or virus in culture; remark: listed apart in the source
Description: Antimicrobial activity against Escherichia coli expressing beta-lactamase AmpC by CLSI broth microdilution method

Escherichia coli [27] = assay: microbe, parasite or virus in culture; remark: listed apart in the source
Description: Antimicrobial activity against Escherichia coli expressing beta-lactamase P99 by CLSI broth microdilution method

Escherichia coli [28] = assay: microbe, parasite or virus in culture; remark: listed apart in the source
Description: Antimicrobial activity against Escherichia coli expressing beta-lactamase Oxa-40 by CLSI broth microdilution method

Escherichia coli [29] = assay: microbe, parasite or virus in culture; remark: listed apart in the source
Description: Antimicrobial activity against Escherichia coli expressing beta-lactamase IMI-1 by CLSI broth microdilution method

Escherichia coli [30] = assay: microbe, parasite or virus in culture; remark: listed apart in the source
Description: Antimicrobial activity against Escherichia coli expressing beta-lactamase Oxa-225 by CLSI broth microdilution method

SMILES	MIC (Escherichia coli [1])	pIC50 [2]	MIC (Escherichia coli [4])	MIC (Escherichia coli [5])	MIC90 (Enterobacteriaceae)	MIC (Escherichia coli [6])	MIC (Escherichia coli [8])	MIC (Escherichia coli [9])	MIC (Escherichia coli [10])	MIC (Escherichia coli [11])	MIC (Escherichia coli [12])	MIC (Escherichia coli [13])	MIC (Escherichia coli [14])	MIC (Escherichia coli [15])	MIC (Escherichia coli [16])	MIC (Escherichia coli [17])	MIC (Escherichia coli [18])	MIC (Escherichia coli [19])	MIC (Escherichia coli [20])	MIC (Escherichia coli [21])	further results
NC[C@@H]1CN(C[C@@H]2[C@H](NC(=O)/C(=N\OC3(C(=O)O)CC3)c3csc(N)n3)C(=O)N2S(=O)(=O)O)C(=O)O1 (stereo in doubt)	≤ 0.06 mg/L	2.87	0.125 mg/L (≈ 0.228 µM)	0.125 mg/L (≈ 0.228 µM)	1 mg/L (≈ 1.83 µM)	0.125 mg/L (≈ 0.228 µM)	> 64 mg/L	1 mg/L (≈ 1.83 µM)	1 mg/L (≈ 1.83 µM)	0.125 mg/L (≈ 0.228 µM)	≤ 0.06 mg/L	≤ 0.06 mg/L	2 mg/L (≈ 3.65 µM)	0.5 mg/L (≈ 0.913 µM)	≤ 0.06 mg/L	> 32 mg/L	0.03 mg/L (≈ 0.0548 µM)	0.125 mg/L (≈ 0.228 µM)	0.06 mg/L (≈ 0.11 µM)	32 mg/L (≈ 58.4 µM)	MIC (Pseudomonas aeruginosa [3]): 16 mg/L (≈ 29.2 µM); MIC (Pseudomonas aeruginosa [7]): > 32 mg/L; MIC (Escherichia coli [22]): 0.25 mg/L (≈ 0.457 µM); MIC (Escherichia coli [23]): ≤ 0.06 mg/L; MIC (Pseudomonas aeruginosa [24]): 32 mg/L (≈ 58.4 µM); MIC (Escherichia coli [25]): 0.25 mg/L (≈ 0.457 µM); MIC (Escherichia coli [26]): 0.125 mg/L (≈ 0.228 µM); MIC (Escherichia coli [27]): 0.125 mg/L (≈ 0.228 µM); MIC (Escherichia coli [28]): 0.125 mg/L (≈ 0.228 µM); MIC (Escherichia coli [29]): 0.125 mg/L (≈ 0.228 µM); MIC (Escherichia coli [30]): 0.5 mg/L (≈ 0.913 µM)
N=C(N)NCc1cnn(C[C@@H]2[C@H](NC(=O)/C(=N\OC3(C(=O)O)CC3)c3csc(N)n3)C(=O)N2S(=O)(=O)O)n1 (stereo in doubt)	0.5 mg/L (≈ 0.875 µM)	3.72	0.5 mg/L (≈ 0.875 µM)	0.125 mg/L (≈ 0.219 µM)	4 mg/L (≈ 7 µM)	0.125 mg/L (≈ 0.219 µM)	64 mg/L (≈ 112 µM)	4 mg/L (≈ 7 µM)	1 mg/L (≈ 1.75 µM)	0.06 mg/L (≈ 0.105 µM)	0.25 mg/L (≈ 0.437 µM)	0.5 mg/L (≈ 0.875 µM)	4 mg/L (≈ 7 µM)	0.5 mg/L (≈ 0.875 µM)	0.125 mg/L (≈ 0.219 µM)	> 64 mg/L	0.125 mg/L (≈ 0.219 µM)	0.5 mg/L (≈ 0.875 µM)	0.06 mg/L (≈ 0.105 µM)	16 mg/L (≈ 28 µM)	MIC (Pseudomonas aeruginosa [3]): 0.25 mg/L (≈ 0.437 µM); MIC (Pseudomonas aeruginosa [7]): 32 mg/L (≈ 56 µM); MIC (Escherichia coli [22]): 8 mg/L (≈ 14 µM); MIC (Escherichia coli [23]): 0.25 mg/L (≈ 0.437 µM); MIC (Pseudomonas aeruginosa [24]): 2 mg/L (≈ 3.5 µM); MIC (Escherichia coli [25]): 0.25 mg/L (≈ 0.437 µM); MIC (Escherichia coli [26]): 0.5 mg/L (≈ 0.875 µM); MIC (Escherichia coli [27]): 0.25 mg/L (≈ 0.437 µM); MIC (Escherichia coli [28]): 0.125 mg/L (≈ 0.219 µM); MIC (Escherichia coli [29]): 0.06 mg/L (≈ 0.105 µM); MIC (Escherichia coli [30]): 0.25 mg/L (≈ 0.437 µM)
N=C(N)NCc1cn(C[C@@H]2[C@H](NC(=O)/C(=N\OC3(C(=O)O)CC3)c3csc(N)n3)C(=O)N2S(=O)(=O)O)nn1 (stereo in doubt)	0.5 mg/L (≈ 0.875 µM)	3.05	0.25 mg/L (≈ 0.437 µM)	0.125 mg/L (≈ 0.219 µM)	2 mg/L (≈ 3.5 µM)	0.125 mg/L (≈ 0.219 µM)	32 mg/L (≈ 56 µM)	2 mg/L (≈ 3.5 µM)	1 mg/L (≈ 1.75 µM)	0.125 mg/L (≈ 0.219 µM)	0.25 mg/L (≈ 0.437 µM)	1 mg/L (≈ 1.75 µM)	1 mg/L (≈ 1.75 µM)	1 mg/L (≈ 1.75 µM)	0.25 mg/L (≈ 0.437 µM)	> 64 mg/L	0.03 mg/L (≈ 0.0525 µM)	0.25 mg/L (≈ 0.437 µM)	0.06 mg/L (≈ 0.105 µM)	8 mg/L (≈ 14 µM)	MIC (Escherichia coli [22]): 4 mg/L (≈ 7 µM); MIC (Escherichia coli [23]): 0.25 mg/L (≈ 0.437 µM); MIC (Escherichia coli [25]): 0.5 mg/L (≈ 0.875 µM); MIC (Escherichia coli [26]): 0.125 mg/L (≈ 0.219 µM); MIC (Escherichia coli [27]): 0.25 mg/L (≈ 0.437 µM); MIC (Escherichia coli [28]): 0.125 mg/L (≈ 0.219 µM); MIC (Escherichia coli [29]): 0.06 mg/L (≈ 0.105 µM); MIC (Escherichia coli [30]): 0.25 mg/L (≈ 0.437 µM)
Nc1nc(/C(=N/OC2(C(=O)O)CC2)C(=O)N[C@@H]2C(=O)N(S(=O)(=O)O)[C@@H]2CN2CCOC2=O)cs1 (stereo in doubt) [ANCREMONAM]	0.125 mg/L (≈ 0.241 µM)	< 2.62	0.25 mg/L (≈ 0.482 µM)	0.125 mg/L (≈ 0.241 µM)	2 mg/L (≈ 3.86 µM)	0.25 mg/L (≈ 0.482 µM)	64 mg/L (≈ 123 µM)	0.5 mg/L (≈ 0.964 µM)	0.125 mg/L (≈ 0.241 µM)	0.125 mg/L (≈ 0.241 µM)	0.125 mg/L (≈ 0.241 µM)	0.25 mg/L (≈ 0.482 µM)	2 mg/L (≈ 3.86 µM)	0.5 mg/L (≈ 0.964 µM)	0.125 mg/L (≈ 0.241 µM)	128 mg/L (≈ 247 µM)	0.125 mg/L (≈ 0.241 µM)	0.25 mg/L (≈ 0.482 µM)	0.125 mg/L (≈ 0.241 µM)	8 mg/L (≈ 15.4 µM)	MIC (Pseudomonas aeruginosa [3]): 1 mg/L (≈ 1.93 µM); MIC (Pseudomonas aeruginosa [7]): 64 mg/L (≈ 123 µM); MIC (Escherichia coli [22]): 0.5 mg/L (≈ 0.964 µM); MIC (Escherichia coli [23]): 0.125 mg/L (≈ 0.241 µM); MIC (Pseudomonas aeruginosa [24]): 32 mg/L (≈ 61.7 µM); MIC (Escherichia coli [25]): 0.5 mg/L (≈ 0.964 µM); MIC (Escherichia coli [26]): 0.25 mg/L (≈ 0.482 µM); MIC (Escherichia coli [27]): 0.25 mg/L (≈ 0.482 µM); MIC (Escherichia coli [28]): 0.125 mg/L (≈ 0.241 µM); MIC (Escherichia coli [29]): 0.125 mg/L (≈ 0.241 µM); MIC (Escherichia coli [30]): 1 mg/L (≈ 1.93 µM)
